Assay: Inhibition of R1881-stimulated AR transcription driven human LNCaP cells proliferation preincubated for 1 hr followed by R1881 addition and measured after 4 days by Alamar blue assay

Work on `CCC(=O)N[C@H](C[C@H](C)C(Cl)(Cl)Cl)C(=O)N1C(=O)C=C(OC)[C@@H]1C[C@H](C)C(Cl)Cl` yielded an IC50 of 14 µM.

Source: BindingDB's records for doi:10.1021/acs.jnatprod.0c00921 (Bc Cancer, 2021)
